Calls of active or inactive are those of the source.
What was measured:
[1] = molecular target: T1, Voltage-dependent T-type calcium channel subunit alpha-1H (Homo sapiens, UniProt O95180); assay: Inhibition of Cav3.2 (unknown origin) assessed as reduction in KCl-induced increase in intracellular calcium level at 10 uM by fura-2 AM indicator based FDSS assay relative to control; format: cell-based
[2] = molecular target: T2, Voltage-dependent T-type calcium channel subunit alpha-1G (Homo sapiens, UniProt O43497); assay: Inhibition of recombinant human Cav3.1 expressed in HEK293 cells assessed as reduction in KCl-induced increase in intracellular calcium level at 10 uM by fura-2 AM indicator based FDSS assay relative to control; format: cell-based
[3] = molecular target: Voltage-gated inwardly rectifying potassium channel KCNH2 (Homo sapiens, UniProt Q12809); assay: Inhibition of human ERG by whole-cell patch clamp method
[4] = Stability in human liver microsomes assessed as parent compound remaining measured after 30 mins; format: ADME, Microsome; conditions: read-out: Stability
Rattus norvegicus [5] = assay: Analgesic activity in Sprague-Dawley rat L5/L6 spinal nerve ligation-induced neuropathic pain model assessed as decrease in paw withdrawal threshold to non-noxious cold stimuli at 100 mg/kg, po measured after 1 hr; format: functional, organism-based
[6] = molecular target: T1, Voltage-dependent T-type calcium channel subunit alpha-1H; assay: Inhibition of Cav3.2 (unknown origin) assessed as suppression of KCl-evoked current by whole-cell patch clamp method
CYP3A4 = CYP3A4 (Homo sapiens, UniProt P08684); assay: Inhibition of CYP3A4 (unknown origin) assessed as residual activity at 10 uM relative to control; format: ADME; conditions: read-out: Activity
CYP1A2 = molecular target: T3, CYP1A2 (Homo sapiens, UniProt P05177); assay: Inhibition of CYP1A2 (unknown origin) assessed as residual activity at 10 uM relative to control; format: ADME; conditions: read-out: Activity
T3 sequence (P05177 whole entry): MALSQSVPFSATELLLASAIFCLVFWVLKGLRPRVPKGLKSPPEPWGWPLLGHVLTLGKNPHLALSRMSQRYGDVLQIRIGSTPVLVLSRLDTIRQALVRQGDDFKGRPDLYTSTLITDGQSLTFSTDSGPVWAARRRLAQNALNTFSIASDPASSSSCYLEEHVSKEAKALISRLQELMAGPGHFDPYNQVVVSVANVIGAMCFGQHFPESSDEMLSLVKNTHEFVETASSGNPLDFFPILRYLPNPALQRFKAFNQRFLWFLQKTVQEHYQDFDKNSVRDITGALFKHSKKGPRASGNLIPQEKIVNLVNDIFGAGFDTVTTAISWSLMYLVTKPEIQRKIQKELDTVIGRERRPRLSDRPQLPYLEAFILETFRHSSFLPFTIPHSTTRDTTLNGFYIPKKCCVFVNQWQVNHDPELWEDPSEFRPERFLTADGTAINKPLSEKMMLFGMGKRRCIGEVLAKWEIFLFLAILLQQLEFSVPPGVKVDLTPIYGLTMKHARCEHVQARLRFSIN

Rattus norvegicus [7] = assay: Analgesic activity in Sprague-Dawley rat L5/L6 spinal nerve ligation-induced neuropathic pain model assessed as decrease in paw withdrawal threshold to non-noxious cold stimuli at 100 mg/kg, po measured after 5 hrs; format: functional, organism-based
[8] = molecular target: T2, Voltage-dependent T-type calcium channel subunit alpha-1G; assay: Inhibition of recombinant human Cav3.1 expressed in HEK293 cells assessed as suppression of KCl-evoked current by whole-cell patch clamp method; format: cell-based
CYP2C9 = CYP2C9 (Homo sapiens, UniProt P11712); assay: Inhibition of CYP2C9 (unknown origin) assessed as residual activity at 10 uM relative to control; format: ADME; conditions: read-out: Activity
Rattus norvegicus [9] = assay: Analgesic activity in Sprague-Dawley rat L5/L6 spinal nerve ligation-induced neuropathic pain model assessed as reversal of mechanical allodynia by measuring increase in paw withdrawal threshold to non-noxious mechanical stimuli at 100 mg/kg, po measured after 3 hrs relative to control; format: functional
CYP2C19 = CYP2C19 (Homo sapiens, UniProt P33261); assay: Inhibition of CYP2C19 (unknown origin) assessed as residual activity at 10 uM relative to control; format: ADME; conditions: read-out: Activity
CYP2D6 = CYP2D6 (Homo sapiens, UniProt P10635); assay: Inhibition of CYP2D6 (unknown origin) assessed as residual activity at 10 uM relative to control; format: ADME; conditions: read-out: Activity
CYP2D6, sequence (P10635 whole entry): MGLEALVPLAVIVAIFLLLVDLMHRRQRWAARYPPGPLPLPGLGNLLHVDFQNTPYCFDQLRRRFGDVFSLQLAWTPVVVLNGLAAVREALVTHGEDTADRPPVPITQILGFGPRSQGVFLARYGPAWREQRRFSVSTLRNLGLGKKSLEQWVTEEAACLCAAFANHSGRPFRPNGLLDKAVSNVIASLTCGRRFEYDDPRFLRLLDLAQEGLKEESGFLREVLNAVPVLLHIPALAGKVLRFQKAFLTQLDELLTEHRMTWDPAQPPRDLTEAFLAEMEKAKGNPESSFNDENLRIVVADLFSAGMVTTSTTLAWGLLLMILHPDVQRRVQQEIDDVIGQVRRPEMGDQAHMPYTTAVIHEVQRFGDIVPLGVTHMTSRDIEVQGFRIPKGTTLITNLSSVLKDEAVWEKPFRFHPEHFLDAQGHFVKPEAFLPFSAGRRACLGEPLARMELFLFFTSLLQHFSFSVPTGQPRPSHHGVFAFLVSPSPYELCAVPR

T1 sequence (O95180 whole entry): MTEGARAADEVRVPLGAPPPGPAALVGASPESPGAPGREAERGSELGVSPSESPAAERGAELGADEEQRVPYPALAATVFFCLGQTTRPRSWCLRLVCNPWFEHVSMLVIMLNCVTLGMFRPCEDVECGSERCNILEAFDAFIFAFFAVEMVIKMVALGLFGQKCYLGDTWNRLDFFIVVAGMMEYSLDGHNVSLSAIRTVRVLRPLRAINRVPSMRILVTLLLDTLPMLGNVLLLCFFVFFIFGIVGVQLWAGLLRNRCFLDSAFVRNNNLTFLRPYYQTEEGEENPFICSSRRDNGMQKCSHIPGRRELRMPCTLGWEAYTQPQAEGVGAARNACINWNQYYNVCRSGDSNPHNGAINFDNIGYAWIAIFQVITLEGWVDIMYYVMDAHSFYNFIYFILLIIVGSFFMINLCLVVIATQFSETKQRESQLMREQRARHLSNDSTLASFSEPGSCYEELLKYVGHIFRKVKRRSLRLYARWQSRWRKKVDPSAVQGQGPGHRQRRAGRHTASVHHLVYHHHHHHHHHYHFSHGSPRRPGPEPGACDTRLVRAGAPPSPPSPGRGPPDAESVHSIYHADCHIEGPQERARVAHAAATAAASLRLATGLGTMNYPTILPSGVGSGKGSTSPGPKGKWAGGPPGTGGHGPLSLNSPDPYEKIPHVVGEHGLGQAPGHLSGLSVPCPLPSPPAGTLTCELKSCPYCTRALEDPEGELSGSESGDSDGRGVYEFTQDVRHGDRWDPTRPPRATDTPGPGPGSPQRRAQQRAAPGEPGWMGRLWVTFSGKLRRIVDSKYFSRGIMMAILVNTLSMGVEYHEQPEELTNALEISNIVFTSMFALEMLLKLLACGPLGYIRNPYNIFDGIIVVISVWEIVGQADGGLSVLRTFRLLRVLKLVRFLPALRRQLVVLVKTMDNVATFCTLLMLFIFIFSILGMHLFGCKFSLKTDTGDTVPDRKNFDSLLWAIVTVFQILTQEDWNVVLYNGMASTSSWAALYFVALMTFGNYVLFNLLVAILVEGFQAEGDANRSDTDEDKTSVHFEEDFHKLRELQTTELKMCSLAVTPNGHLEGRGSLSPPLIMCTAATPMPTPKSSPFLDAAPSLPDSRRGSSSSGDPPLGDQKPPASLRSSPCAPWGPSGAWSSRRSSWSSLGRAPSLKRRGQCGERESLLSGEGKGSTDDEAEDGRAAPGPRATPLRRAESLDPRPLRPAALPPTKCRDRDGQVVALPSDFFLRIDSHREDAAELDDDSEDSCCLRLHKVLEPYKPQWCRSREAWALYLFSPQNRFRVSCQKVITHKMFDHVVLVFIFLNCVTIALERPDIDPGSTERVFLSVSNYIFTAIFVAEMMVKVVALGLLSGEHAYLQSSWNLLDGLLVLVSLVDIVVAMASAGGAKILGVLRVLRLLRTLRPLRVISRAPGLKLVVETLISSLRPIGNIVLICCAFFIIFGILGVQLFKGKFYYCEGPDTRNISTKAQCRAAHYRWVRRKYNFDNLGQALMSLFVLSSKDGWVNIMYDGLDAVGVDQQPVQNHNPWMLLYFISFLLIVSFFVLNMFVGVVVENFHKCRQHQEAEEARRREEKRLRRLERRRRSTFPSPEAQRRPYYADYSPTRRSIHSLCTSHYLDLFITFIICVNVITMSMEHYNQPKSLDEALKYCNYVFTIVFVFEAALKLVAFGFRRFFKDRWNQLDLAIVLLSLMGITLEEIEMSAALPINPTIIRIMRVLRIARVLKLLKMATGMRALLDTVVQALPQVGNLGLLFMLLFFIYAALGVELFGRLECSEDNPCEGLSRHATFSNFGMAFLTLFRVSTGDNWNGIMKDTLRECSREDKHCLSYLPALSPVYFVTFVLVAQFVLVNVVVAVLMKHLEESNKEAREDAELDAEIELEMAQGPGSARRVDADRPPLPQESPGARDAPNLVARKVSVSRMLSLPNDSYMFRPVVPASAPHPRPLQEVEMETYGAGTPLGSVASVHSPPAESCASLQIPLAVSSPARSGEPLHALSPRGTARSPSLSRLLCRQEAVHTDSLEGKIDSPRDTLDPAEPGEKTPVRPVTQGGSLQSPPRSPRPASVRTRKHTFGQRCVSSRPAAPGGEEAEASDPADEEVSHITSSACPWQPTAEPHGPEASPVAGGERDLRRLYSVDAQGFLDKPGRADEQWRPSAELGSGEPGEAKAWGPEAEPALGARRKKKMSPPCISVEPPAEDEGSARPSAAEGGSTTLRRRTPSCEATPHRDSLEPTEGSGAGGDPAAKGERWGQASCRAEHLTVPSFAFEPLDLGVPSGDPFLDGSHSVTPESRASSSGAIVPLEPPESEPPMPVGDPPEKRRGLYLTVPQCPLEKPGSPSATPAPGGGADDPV
Voltage-gated inwardly rectifying potassium channel KCNH2, sequence (Q12809 whole entry): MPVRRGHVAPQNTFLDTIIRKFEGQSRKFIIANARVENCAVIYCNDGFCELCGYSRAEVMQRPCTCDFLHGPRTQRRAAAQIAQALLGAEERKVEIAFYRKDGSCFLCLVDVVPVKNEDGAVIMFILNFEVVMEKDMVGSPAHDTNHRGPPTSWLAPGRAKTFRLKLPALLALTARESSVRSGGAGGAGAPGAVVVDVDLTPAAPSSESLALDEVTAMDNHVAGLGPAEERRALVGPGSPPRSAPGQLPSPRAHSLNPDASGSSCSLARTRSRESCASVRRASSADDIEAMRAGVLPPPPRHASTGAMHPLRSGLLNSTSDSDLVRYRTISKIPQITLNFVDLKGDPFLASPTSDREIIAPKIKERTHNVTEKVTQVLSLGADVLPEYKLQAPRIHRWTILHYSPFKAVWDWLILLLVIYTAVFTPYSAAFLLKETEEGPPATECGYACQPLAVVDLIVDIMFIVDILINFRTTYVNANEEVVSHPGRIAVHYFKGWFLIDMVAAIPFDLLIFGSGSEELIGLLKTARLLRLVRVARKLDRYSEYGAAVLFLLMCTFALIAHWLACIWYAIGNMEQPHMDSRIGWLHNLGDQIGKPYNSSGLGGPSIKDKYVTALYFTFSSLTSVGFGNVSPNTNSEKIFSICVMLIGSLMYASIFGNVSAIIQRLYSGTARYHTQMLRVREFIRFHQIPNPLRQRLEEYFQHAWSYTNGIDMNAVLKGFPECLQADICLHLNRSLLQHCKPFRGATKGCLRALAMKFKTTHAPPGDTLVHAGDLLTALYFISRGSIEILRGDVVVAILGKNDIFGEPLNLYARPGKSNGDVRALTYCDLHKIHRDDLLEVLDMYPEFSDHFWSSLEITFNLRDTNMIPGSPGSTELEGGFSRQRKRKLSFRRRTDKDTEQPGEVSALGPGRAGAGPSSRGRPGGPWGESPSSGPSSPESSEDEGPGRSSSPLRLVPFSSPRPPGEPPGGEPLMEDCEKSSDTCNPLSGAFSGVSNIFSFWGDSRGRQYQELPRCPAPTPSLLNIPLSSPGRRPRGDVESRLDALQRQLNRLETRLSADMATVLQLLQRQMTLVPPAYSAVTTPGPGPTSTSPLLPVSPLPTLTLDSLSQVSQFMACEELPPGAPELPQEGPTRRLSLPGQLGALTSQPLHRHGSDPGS
CYP2C19, sequence (P33261 whole entry): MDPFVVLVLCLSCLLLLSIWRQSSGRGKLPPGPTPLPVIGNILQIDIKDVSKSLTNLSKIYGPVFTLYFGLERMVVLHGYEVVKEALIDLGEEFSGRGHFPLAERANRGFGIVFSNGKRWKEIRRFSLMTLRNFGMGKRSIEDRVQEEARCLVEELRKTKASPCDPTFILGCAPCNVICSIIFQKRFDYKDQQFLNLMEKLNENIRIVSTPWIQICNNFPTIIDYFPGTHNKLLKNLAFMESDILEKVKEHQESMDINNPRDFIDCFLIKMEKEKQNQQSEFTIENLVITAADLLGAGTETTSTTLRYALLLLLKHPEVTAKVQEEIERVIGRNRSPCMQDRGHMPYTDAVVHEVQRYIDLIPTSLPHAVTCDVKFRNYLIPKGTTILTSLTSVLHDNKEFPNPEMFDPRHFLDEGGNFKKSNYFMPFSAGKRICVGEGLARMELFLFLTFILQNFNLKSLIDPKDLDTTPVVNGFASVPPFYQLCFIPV
CYP3A4, sequence (P08684 whole entry): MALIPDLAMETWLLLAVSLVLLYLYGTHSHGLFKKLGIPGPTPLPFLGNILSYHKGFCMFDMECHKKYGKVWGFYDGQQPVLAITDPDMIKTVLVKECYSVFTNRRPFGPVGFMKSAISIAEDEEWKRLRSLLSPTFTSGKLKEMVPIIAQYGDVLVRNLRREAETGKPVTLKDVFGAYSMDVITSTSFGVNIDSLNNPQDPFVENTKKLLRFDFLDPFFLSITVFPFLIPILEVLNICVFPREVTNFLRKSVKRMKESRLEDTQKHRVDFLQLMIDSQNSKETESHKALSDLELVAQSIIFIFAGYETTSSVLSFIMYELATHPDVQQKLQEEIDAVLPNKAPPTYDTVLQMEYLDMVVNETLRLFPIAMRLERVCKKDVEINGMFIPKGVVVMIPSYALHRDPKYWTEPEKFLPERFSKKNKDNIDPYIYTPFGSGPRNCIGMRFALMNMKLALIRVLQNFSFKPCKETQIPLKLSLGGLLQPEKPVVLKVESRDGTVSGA

CC(C)c1cc(C(=O)NC[C@H]2CCNC2)on1
inhibition [1]: 8.36%
inhibition [2]: 11.4%

CC(C)c1cc(C(=O)NC[C@H]2CCN(CCC(C)(C)C)C2)on1
inhibition [1]: 21.1%
inhibition [2]: 23.3%

COC(=O)C1=C(C)NC(C)=C(C(=O)NC[C@H]2CCN(CCc3ccc(Cl)c(F)c3)C2)C1c1cccc([N+](=O)[O-])c1 (stereo not given in full)
IC50 [3]: 330 nM
remaining at 0.5 h [4]: 2.13%
inhibition [1]: 69.7%
inhibition [2]: 80.3%

COC(=O)C1=C(C)NC(C)=C(C(=O)NC[C@H]2CCN(CCc3ccc(Cl)c(Cl)c3)C2)C1c1cccc([N+](=O)[O-])c1 (stereo not given in full)
remaining at 0.5 h [4]: 2.87%
inhibition [1]: 31.3%
inhibition [2]: 32.5%

COC(=O)C1=C(C)NC(C)=C(C(=O)NC[C@H]2CCNC2)C1c1cccc([N+](=O)[O-])c1 (stereo not given in full)
inhibition [1]: 21.8%
inhibition [2]: 5.49%

COC(=O)C1=C(C)NC(C)=C(C(=O)NC[C@H]2CCN(CCc3ccc(C(F)(F)F)cc3)C2)C1c1cccc([N+](=O)[O-])c1 (stereo not given in full)
IC50 [3]: 1480 nM
remaining at 0.5 h [4]: 2.01%
inhibition [1]: 34.1%
inhibition [2]: 43.5%

CC(C)c1cc(C(=O)NC[C@H]2CCN(Cc3cccnc3)C2)on1
inhibition [1]: 11.6%
inhibition [2]: 2.4%

Cc1ccc(CCN2CC[C@H](CNC(=O)c3cc(C(C)C)no3)C2)cc1C(F)(F)F
Activity (Rattus norvegicus [5]): Active
IC50 [6]: 7610 nM
activity at 10 µM (CYP3A4): 33%
activity at 10 µM (CYP1A2): 88.1%
IC50 [3]: 1900 nM
Activity (Rattus norvegicus [7]): Active
remaining at 0.5 h [4]: 39.8%
IC50 [8]: 5130 nM
inhibition [1]: 51.9%
activity at 10 µM (CYP2C9): 53.9%
Activity (Rattus norvegicus [9]): 80%
activity at 10 µM (CYP2C19): 50.4%
inhibition [2]: 46.8%
activity at 10 µM (CYP2D6): 31.2%

COC(=O)C1=C(C)NC(C)=C(C(=O)NC[C@H]2CCN(CCc3ccc(C)c(C(F)(F)F)c3)C2)C1c1cccc([N+](=O)[O-])c1 (stereo not given in full)
IC50 [3]: 2700 nM
remaining at 0.5 h [4]: 0.63%
inhibition [1]: 65.2%
inhibition [2]: 78.3%

CC(C)c1cc(C(=O)NC[C@H]2CCN(CCc3ccc(OC(F)(F)F)c(F)c3)C2)on1
IC50 [3]: 160 nM
remaining at 0.5 h [4]: 35.2%
inhibition [1]: 59.7%
inhibition [2]: 36.4%

CC(C)c1cc(C(=O)NC[C@H]2CCN(CCc3ccc(Cl)c(Cl)c3)C2)on1
IC50 [3]: 1530 nM
remaining at 0.5 h [4]: 51.7%
inhibition [1]: 69.7%
inhibition [2]: 71.7%

NCC1(CC(=O)O)CCCCC1
Activity (Rattus norvegicus [7]): Active
Activity (Rattus norvegicus [9]): Active

COC(=O)C1=C(C)NC(C)=C(C(=O)NC[C@H]2CCN(CCc3ccc(OC(F)(F)F)c(F)c3)C2)C1c1cccc([N+](=O)[O-])c1 (stereo not given in full)
IC50 [3]: 1470 nM
remaining at 0.5 h [4]: 0.25%
inhibition [1]: 33.7%
inhibition [2]: 26.4%

CC(C)c1cc(C(=O)NC[C@H]2CCN(CCc3ccc(C(F)(F)F)cc3)C2)on1
remaining at 0.5 h [4]: 34.2%
inhibition [1]: 63.2%
inhibition [2]: 48.7%

CC(C)c1cc(C(=O)NC[C@H]2CCN(C(=O)CC(C)(C)C)C2)on1
inhibition [1]: 17.8%
inhibition [2]: 23.1%

CC(C)c1cc(C(=O)NC[C@H]2CCN(CCc3ccc(Cl)c(F)c3)C2)on1
IC50 [3]: 1520 nM
remaining at 0.5 h [4]: 26.2%
inhibition [1]: 50.1%
inhibition [2]: 59.9%

Source: ChEMBL document CHEMBL4392842, “Structural hybridization of pyrrolidine-based T-type calcium channel inhibitors and exploration of their analgesic effects in a neuropathic pain model” (Bioorg Med Chem Lett, 2019)
